In patent US20040253139A1, “Environmental surface disinfectant” (priority 2003, published 2004):

Tested on: E. coli (ATCC 25922)
Experiment: Lower effective concentration of ethyl lactate, modification of AOAC Method 956.17
Format: cell-based
Conditions: 15% solution of ethyl lactate, exposure 10 minutes
Procedure: Using a modification of AOAC Method 956.17, the lower effective concentration for ethyl lactate was tested against E. coli (ATCC 25922) at three reaction times at varying concentrations of ethyl lactate.

## CCOC(=O)C(C)O (stereo not shown) [ethyl lactate]
  Bacterial growth: eliminated bacterial growth
